Measurements as given in PubChem BioAssay AID330 (DTP/NCI, 2004).
Where “and” joins values, the source holds several entries; their conditions need not be identical. Identical values can stand only once. Inconclusive results and toxic doses are left out.

System: P388 leukemia ip, CD2F1 mice, survival T/C
Assay: NCI In Vivo Anticancer Drug Screen. Data for tumor model P388 Leukemia (intraperitoneal) in CD2F1 (CDF1) mice
Settings: endpoint: median survival time, higher = longer survival
Summary of the method: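 Mice carrying the transplanted tumor received test compound or vehicle. Survival was recorded in each group, and the value is the treated-group measurement divided by that of the vehicle-treated control group.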

[1] = dose: 60.0 mg/kg/injection, schedule: Q01DX005 (ip), vehicle: Klucel (hydroxypropylcellulose) (HPC)
[2] = dose: 120.0 mg/kg/injection, schedule: Q01DX005 (ip), vehicle: Klucel (hydroxypropylcellulose) (HPC)
[3] = dose: 240.0 mg/kg/injection, schedule: Q01DX005 (ip), vehicle: Klucel (hydroxypropylcellulose) (HPC)
[4] = dose: 50.0 mg/kg/injection, schedule: Q01DX009 (ip), vehicle: saline with Tween-80
[5] = dose: 50.0 mg/kg/injection, schedule: Q01DX005 (ip), vehicle: saline with Tween-80
[6] = dose: 100.0 mg/kg/injection, schedule: Q01DX005 (ip), vehicle: saline with Tween-80
[7] = dose: 200.0 mg/kg/injection, schedule: Q01DX005 (ip), vehicle: saline with Tween-80
[8] = dose: 50.0 mg/kg/injection, schedule: Q01DX009 (ip), vehicle: Klucel (hydroxypropylcellulose) (HPC)
[9] = dose: 100.0 mg/kg/injection, schedule: Q01DX009 (ip), vehicle: Klucel (hydroxypropylcellulose) (HPC)
[10] = dose: 100.0 mg/kg/injection, schedule: Q01DX009 (ip), vehicle: saline with Tween-80
[11] = dose: 100.0 mg/kg/injection, schedule: Q04DX003 (ip), vehicle: saline with Tween-80
[12] = dose: 12.5 mg/kg/injection, schedule: Q01DX009 (ip), vehicle: saline
[13] = dose: 25.0 mg/kg/injection, schedule: Q01DX009 (ip), vehicle: saline

With `Cn1cc(Cl)n(C)c(=O)c1=O` the T/C (dose: 6.25 mg/kg/injection, schedule: Q01DX001 (ip), vehicle: saline with Tween-80) was 104 % of control, the T/C (dose: 12.5 mg/kg/injection, schedule: Q01DX001 (ip), vehicle: saline with Tween-80) was 104 % of control and the T/C (dose: 25.0 mg/kg/injection, schedule: Q01DX001 (ip), vehicle: saline with Tween-80) was 118 % of control.
With `CCC1(O)C(=O)Nc2ccc(OC)cc2C1=O` (stereo not given) the T/C [1] was 97 % of control, the T/C [2] was 93 % of control and the T/C [3] was 93 % of control.
`CN(C)CC1=c2ccccc2=N/C1=C\c1ccc(N(C)C)cc1` was tested, and the T/C (dose: 100.0 mg/kg/injection, schedule: Q01DX001 (ip), vehicle: saline with Tween-80) was 89 % of control, the T/C (dose: 200.0 mg/kg/injection, schedule: Q01DX001 (ip), vehicle: saline with Tween-80) was 88 % of control and the T/C (dose: 400.0 mg/kg/injection, schedule: Q01DX001 (ip), vehicle: saline with Tween-80) was 92 % of control.
In the case of `COc1cccc2c1C(=O)c1c(O)c3c(c(O)c1C2=O)C[C@@](O)(/C(C)=N/NC(=O)c1ccccc1)C[C@@H]3OC1CC(N(C)C)C(O)C(C)O1` (stereo not given in full), the T/C (dose: 0.78 mg/kg/injection, schedule: Q01DX009 (ip), vehicle: water) is reported as 165 % of control, the T/C (dose: 1.56 mg/kg/injection, schedule: Q01DX009 (ip), vehicle: water) is reported as 165 % of control and the T/C (dose: 3.13 mg/kg/injection, schedule: Q01DX009 (ip), vehicle: water) is reported as 183 % of control and 192 % of control. The T/C (dose: 12.5 mg/kg/injection, schedule: Q01DX009 (ip), vehicle: water) was 103 % of control.
In the case of `C=C(Cl)CN(CC)CCO`, the T/C (dose: 25.0 mg/kg/injection, schedule: Q01DX009 (ip), vehicle: saline sonified) is reported as 100 % of control, the T/C (dose: 50.0 mg/kg/injection, schedule: Q01DX009 (ip), vehicle: saline sonified) is reported as 100 % of control and the T/C (dose: 100.0 mg/kg/injection, schedule: Q01DX009 (ip), vehicle: saline sonified) is reported as 100 % of control.
`CSC(/C=C1\C=Cc2ccccc2N1C)=N\S(=O)(=O)c1ccc(N)cc1` was tested, and the T/C (dose: 25.0 mg/kg/injection, schedule: Q04DX002 (ip), vehicle: saline with Tween-80) was 107 % of control, the T/C (dose: 50.0 mg/kg/injection, schedule: Q04DX002 (ip), vehicle: saline with Tween-80) was 100 % of control and the T/C (dose: 100.0 mg/kg/injection, schedule: Q04DX002 (ip), vehicle: saline with Tween-80) was 102 % of control.
In the case of `C[Si](C)(OC(=O)N(CCCl)CCCl)O[Si](C)(C)OC(=O)N(CCCl)CCCl`, the T/C (dose: 6.25 mg/kg/injection, schedule: Q01DX009 (ip), vehicle: saline with Tween-80) is reported as 108 % of control, the T/C (dose: 12.5 mg/kg/injection, schedule: Q01DX009 (ip), vehicle: saline with Tween-80) is reported as 124 % of control and the T/C (dose: 25.0 mg/kg/injection, schedule: Q01DX009 (ip), vehicle: saline with Tween-80) is reported as 165 % of control. For the same compound, the T/C [4] was 115 % of control.
With `Nc1ccccc1C(=O)Nc1ccc(Cl)cc1Cl` the T/C [5] was 104 % of control, the T/C [6] was 92 % of control and the T/C [7] was 92 % of control.
For `NNC(=O)c1ccc(-c2ccccc2)cc1`, the T/C (dose: 6.25 mg/kg/injection, schedule: Q01DX009 (ip), vehicle: Klucel (hydroxypropylcellulose) (HPC)) was 102 % of control, the T/C (dose: 12.5 mg/kg/injection, schedule: Q01DX009 (ip), vehicle: Klucel (hydroxypropylcellulose) (HPC)) was 107 % of control and the T/C (dose: 25.0 mg/kg/injection, schedule: Q01DX009 (ip), vehicle: Klucel (hydroxypropylcellulose) (HPC)) was 102 % of control. For the same compound, the T/C [8] was 110 % of control and the T/C [9] was 116 % of control.
`CCOC(=O)C1=C(C)NC(C)=C(C(=O)OCC)C1c1cccnc1` was tested, and the T/C (dose: 25.0 mg/kg/injection, schedule: Q01DX009 (ip), vehicle: distilled water + Tween-80) was 101 % of control, the T/C (dose: 50.0 mg/kg/injection, schedule: Q01DX009 (ip), vehicle: distilled water + Tween-80) was 103 % of control and the T/C (dose: 100.0 mg/kg/injection, schedule: Q01DX009 (ip), vehicle: distilled water + Tween-80) was 94 % of control. For the same compound, the T/C (dose: 200.0 mg/kg/injection, schedule: Q01DX009 (ip), vehicle: distilled water + Tween-80) was 93 % of control and the T/C (dose: 400.0 mg/kg/injection, schedule: Q01DX009 (ip), vehicle: distilled water + Tween-80) was 88 % of control.
For `COC1=CC[C@H]2[C@H]3Cc4ccc(OC)c5c4[C@@]2(CCN3CC2CC2)C1O5` (stereo not given in full), the T/C (dose: 100.0 mg/kg/injection, schedule: Q04DX002 (ip), vehicle: Klucel (hydroxypropylcellulose) (HPC)) was 97 % of control and the T/C (dose: 200.0 mg/kg/injection, schedule: Q04DX002 (ip), vehicle: Klucel (hydroxypropylcellulose) (HPC)) was 102 % of control.
In the case of `COc1ccc(C(=O)C2Cc3c(ccc4ccccc34)OC2=O)cc1` (stereo not given), the T/C [4] is reported as 95 % of control, the T/C [10] is reported as 91 % of control and the T/C (dose: 200.0 mg/kg/injection, schedule: Q01DX009 (ip), vehicle: saline with Tween-80) is reported as 88 % of control.
In the case of `S=c1nn[nH]n1-c1ccccc1`, the T/C (dose: 25.0 mg/kg/injection, schedule: Q04DX003 (ip), vehicle: saline with Tween-80) is reported as 100 % of control, the T/C [4] is reported as 110 % of control and the T/C (dose: 50.0 mg/kg/injection, schedule: Q04DX003 (ip), vehicle: saline with Tween-80) is reported as 100 % of control. The T/C [10] was 110 % of control and the T/C [11] was 100 % of control and 91 % of control.
With `CN(C)C(CS(=O)(=O)c1ccccc1)c1ccccc1` (stereo not given) the T/C [1] was 100 % of control, the T/C [2] was 91 % of control and the T/C [3] was 91 % of control.
For `C1CSCCSCCSCCSCCSCCS1`, the T/C [8] was 96 % of control, the T/C [9] was 102 % of control and the T/C (dose: 200.0 mg/kg/injection, schedule: Q01DX009 (ip), vehicle: Klucel (hydroxypropylcellulose) (HPC)) was 96 % of control.
`O=[N+]([O-])c1ccc(Sc2ncnc3c2ncn3C2OC(CO)C(O)C2O)c2nonc12` (stereo not given) was tested, and the T/C (dose: 12.5 mg/kg/injection, schedule: Q01DX009 (ip), vehicle: suspension in saline) was 119 % of control and the T/C (dose: 50.0 mg/kg/injection, schedule: Q01DX009 (ip), vehicle: suspension in saline) was 103 % of control and 122 % of control.
With `O=C1CC(=O)C(C(=O)c2ccccc2)N1` (stereo not given) the T/C [5] was 96 % of control, the T/C [6] was 97 % of control and the T/C [7] was 94 % of control.
`O=C(Nc1ncc([N+](=O)[O-])s1)c1ccc([N+](=O)[O-])cc1` was tested, and the T/C [12] was 100 % of control, the T/C [13] was 97 % of control and the T/C (dose: 50.0 mg/kg/injection, schedule: Q01DX009 (ip), vehicle: saline) was 104 % of control.
`COc1cccc2c1C(=O)c1c(O)c3c(c(O)c1C2=O)C[C@@](O)(C(C)=O)C[C@@H]3OC1CC(N)C(C(C)O)O1` (stereo not given in full) was tested, and the T/C (dose: 3.12 mg/kg/injection, schedule: Q04DX003 (ip), vehicle: distilled water + Tween-80) was 117 % of control and 101 % of control, the T/C (dose: 6.25 mg/kg/injection, schedule: Q04DX003 (ip), vehicle: distilled water + Tween-80) was 112 % of control and 92 % of control and the T/C (dose: 12.5 mg/kg/injection, schedule: Q04DX003 (ip), vehicle: distilled water + Tween-80) was 114 % of control and 104 % of control. The T/C (dose: 25.0 mg/kg/injection, schedule: Q04DX003 (ip), vehicle: distilled water + Tween-80) was 117 % of control and 111 % of control, the T/C (dose: 50.0 mg/kg/injection, schedule: Q04DX003 (ip), vehicle: distilled water + Tween-80) was 117 % of control and the T/C (dose: 100.0 mg/kg/injection, schedule: Q04DX003 (ip), vehicle: distilled water + Tween-80) was 119 % of control.
`NC1C[S][Sn][O]C1=O` (stereo not given) was tested, and the T/C [11] was 111 % of control and the T/C (dose: 200.0 mg/kg/injection, schedule: Q04DX003 (ip), vehicle: saline with Tween-80) was 109 % of control.
In the case of `Clc1ccc(SSc2ccc(Cl)cc2)cc1`, the T/C (dose: 12.5 mg/kg/injection, schedule: Q01DX009 (ip), vehicle: gum acacia) is reported as 106 % of control, the T/C (dose: 25.0 mg/kg/injection, schedule: Q01DX009 (ip), vehicle: gum acacia) is reported as 106 % of control and the T/C (dose: 50.0 mg/kg/injection, schedule: Q01DX009 (ip), vehicle: gum acacia) is reported as 114 % of control.
In the case of `O=C1C=C2C=CC(O)C(O)C2O1` (stereo not given), the T/C (dose: 2.5 mg/kg/injection, schedule: Q01DX009 (ip), vehicle: Klucel (hydroxypropylcellulose) (HPC)) is reported as 102 % of control, the T/C (dose: 5.0 mg/kg/injection, schedule: Q01DX009 (ip), vehicle: Klucel (hydroxypropylcellulose) (HPC)) is reported as 98 % of control and the T/C (dose: 10.0 mg/kg/injection, schedule: Q01DX009 (ip), vehicle: Klucel (hydroxypropylcellulose) (HPC)) is reported as 100 % of control. For the same compound, the T/C (dose: 20.0 mg/kg/injection, schedule: Q01DX009 (ip), vehicle: Klucel (hydroxypropylcellulose) (HPC)) was 94 % of control.
With `CCC(=O)NC(Cc1cccs1)C(=O)O` (stereo not given) the T/C (dose: 6.25 mg/kg/injection, schedule: Q01DX009 (ip), vehicle: saline) was 107 % of control, the T/C [12] was 105 % of control and the T/C [13] was 93 % of control. For the same compound, the T/C (dose: 100.0 mg/kg/injection, schedule: Q01DX009 (ip), vehicle: saline) was 88 % of control and the T/C (dose: 200.0 mg/kg/injection, schedule: Q01DX009 (ip), vehicle: saline) was 91 % of control.
